Assays:
[1] = tested on: cellular immunity (delayed type hypersensitivity to sheep erythrocytes); assay: Delayed type hypersensitivity (DTH) to sheep erythrocytes, hind paw edema (cellular immunity); type: in vivo, CDF1 strain female mice; conditions: for Thickness of Edema (Mean Value ± Standard Error): hind paw, 24 hours after challenge; for Potentiating Ratio to Control: control = 100
Procedure: Thus, sheep erythrocytes are used as antigen and 1×10^5 of them are subjected to intravenous injection to CDF1 strain female mice of 10 weeks of age (8 mice per group) and, immediately after the sensitization, a solution of OF4949 or derivatives thereof in a sterilized water is injected intraperitoneally with dosages of 5, 50 or 500 μg/kg and, after four days, 10^8 sheep erythrocytes are injected subcutaneously into left hind paws of the mice. After 24 hours, the degree of edema, i.e. thickness of the paws at that time, observed at the hind paws is measured using a slide calipers.

[2] = Neutral, acidic or basic properties; type: physicochemical
Solubilities = type: physicochemical
ICR strains of mice = assay: Acute toxicity test, 300 mg/kg intraperitoneally; type: in vivo
Procedure: The compounds of the present invention are also characterized by a very low toxicity, making their administration to humans and animals facile. Acute toxicity tests injecting 300 mg/kg intraperitoneally of representative compounds of the present invention to ICR strains of mice produced the toxicity results set forth in Table 9 below: […]

[3] = in methyl alcohol and ethyl alcohol
[4] = in n-propyl alcohol, n-butyl alcohol, acetone, ethyl acetate, chloroform, ether, benzene, and hexane
[5] = in water, alkaline water, and dimethyl sulfoxide

| SMILES | Thickness of Edema (Mean Value ± Standard Error) ([1]; 5 μg/kg intraperitoneally) | Potentiating Ratio to Control ([1]; 5 μg/kg intraperitoneally) | Thickness of Edema (Mean Value ± Standard Error) ([1]; 50 μg/kg intraperitoneally) | Potentiating Ratio to Control ([1]; 50 μg/kg intraperitoneally) | Thickness of Edema (Mean Value ± Standard Error) ([1]; 500 μg/kg intraperitoneally) | Potentiating Ratio to Control ([1]; 500 μg/kg intraperitoneally) | Neutral, acidic or basic properties [2] | Solubility (Solubilities; [3]) | Solubility (Solubilities; [4]) | Solubility (Solubilities; [5]) | Acute toxicity test result (ICR strains of mice) |
| --- | --- | --- | --- | --- | --- | --- | --- | --- | --- | --- | --- |
| NC(=O)C(O)C1NC(=O)C(N)Cc2ccc(O)c(c2)Oc2ccc(cc2)CC(C(=O)O)NC1=O (stereo not drawn) [OF4949-II] | 11.7 ± 1.9 × 0.1 mm | 127% | 13.5 ± 1.2 × 0.1 mm | 147% | 11.4 ± 2.6 × 0.1 mm | 124% | amphoteric | hardly soluble | insoluble | soluble |  |
| COc1ccc2cc1Oc1ccc(cc1)CC(C(=O)O)NC(=O)C(C(O)C(=O)O)NC(=O)C(N)C2 (stereo not drawn) [Compound 18] | 8.2 ± 0.7 × 0.1 mm | 117% | 8.5 ± 0.7 × 0.1 mm | 121% | 7.5 ± 0.6 × 0.1 mm | 107% |  |  |  |  |  |
| COc1ccc2cc1Oc1ccc(cc1)CC(C(=O)O)NC(=O)C(C(O)C(N)=O)NC(=O)C(N)C2 (stereo not drawn) [OF4949-I] | 9.5 ± 0.6 × 0.1 mm | 132% | 11.7 ± 1.5 × 0.1 mm | 163% | 9.1 ± 0.5 × 0.1 mm | 126% | amphoteric | hardly soluble | insoluble | soluble | No toxicity is observed |
| COc1ccc2cc1Oc1ccc(cc1)CC(CO)NC(=O)C(C(O)CO)NC(=O)C(N)C2 (stereo not drawn) [Compound 21] | 7.8 ± 0.8 × 0.1 mm | 111% | 7.8 ± 0.7 × 0.1 mm | 111% | 8.7 ± 0.8 × 0.1 mm | 124% |  |  |  |  |  |
| NC1Cc2ccc(O)c(c2)Oc2ccc(cc2)CC(C(=O)O)NC(=O)C(C(O)C(=O)O)NC1=O (stereo not drawn) [Compound 2] | 9.3 ± 1.2 × 0.1 mm | 116% | 9.1 ± 1.1 × 0.1 mm | 114% | 10.2 ± 0.9 × 0.1 mm | 128% |  |  |  |  |  |
| COc1ccc2cc1Oc1ccc(cc1)CC(C(N)=O)NC(=O)C(C(O)C(N)=O)NC(=O)C(N)C2 (stereo not drawn) [Compound 17] | 8.8 ± 0.7 × 0.1 mm | 126% | 8.4 ± 0.7 × 0.1 mm | 120% | 8.5 ± 0.7 × 0.1 mm | 121% |  |  |  |  |  |

— patent publication US4554289A, “OF4949” (Takara Shuzo Co., Ltd., priority 1982, dated 1985)
